A melting point of 202 to 204 °C was found for NC(=O)c1sc2cncc(Oc3ccc(Cl)cc3)c2c1N [Example 131, 3-amino-4-(4-chlorophenoxy)thieno[2,3-c]pyridine-2-carboxamide] in this work.
A melting point of 280 to 282 °C was found for Cc1ccc(Sc2ccnc3sc(C(N)=O)cc23)cc1 [Example 132D, 4-[(4-methylphenyl)thio]thieno[2,3-b]pyridine-2-carboxamide] in this work.
A melting point of 199 to 202 °C was found for O=C(Nc1ccc(Cl)cc1)c1cnc2sccc2c1Cl [Example 133, 4-chloro-N-(4-chlorophenyl)thieno[2,3-b]pyridine-5-carboxamide] in this work.
A melting point of 93 to 94 °C was found for CCOC(=O)c1cnc2sccc2c1Sc1nnc(C)s1 [Example 134, ethyl 4-[(5-methyl-1,3,4-thiadiazol-2-yl)thio]thieno[2,3-b]pyridine-5-carboxylate] in this work.
A melting point of 76 to 77 °C was found for O=C(NCC(O)CO)c1cc2c(Oc3ccc(Br)cc3)cncc2s1 (stereo not drawn) [Example 149, 4-(4-Bromophenoxy)-N-(2,3-dihydroxypropyl)thieno[2,3-c]pyridine-2-carboxamide] in this work.
A melting point of 111 to 114 °C was found for NCCNC(=O)c1cc2c(Oc3ccc(Cl)cc3)cncc2s1 [Example 154, N-(2-Aminoethyl)-4-(4-chlorophenoxy)thieno[2,3-c]pyridine-2-carboxamide] in this work.
A melting point of 222 to 225 °C was found for NC(=O)CNC(=O)c1cc2c(Oc3ccc(Cl)cc3)cncc2s1 [Example 160, N-(2-Amino-2-oxoethyl)-4-(4-chlorophenoxy)thieno[2,3-c]pyridine-2-carboxamide] in this work.
A melting point of 93 to 95 °C was found for CN(C)C(=O)c1cc2c(Oc3ccc(Br)cc3)cncc2s1 [Example 172, 4-(4-Bromophenoxy)-N,N-dimethylthieno[2,3-c]pyridine-2-carboxamide] in this work.
A melting point of 74 to 76 °C was found for CN(C)C(=O)c1cc2c(Oc3ccc(C(F)(F)F)cc3)cncc2s1 [Example 173, N,N-Dimethyl-4-[4-(trifluoromethyl)phenoxy]thieno[2,3-c]pyridine-2-carboxamide] in this work.
A melting point of 185 to 187 °C was found for CCc1cc(Oc2cncc3sc(C(N)=O)cc23)ccc1Cl [Example 176, 4-(4-Chloro-3-ethylphenoxy)thieno[2,3-c]pyridine-2-carboxamide] in this work.
A melting point of 207 to 209 °C was found for NC(=O)c1cc2c(Oc3cccc(F)c3F)cncc2s1 [Example 178, 4-(2,3-Difluorophenoxy)thieno[2,3-c]pyridine-2-carboxamide] in this work.
A melting point of 169 to 171 °C was found for CNC(=O)c1cc2c(Oc3cccc(F)c3F)cncc2s1 [Example 179, 4-(2,3-Difluorophenoxy)-N-methylthieno[2,3-c]pyridine-2-carboxamide] in this work.
A melting point of 194 to 195 °C was found for CNC(=O)c1cc2c(Oc3cccc(F)c3)cncc2s1 [Example 180, 4-(3-Fluorophenoxy)-N-methylthieno[2,3-c]pyridine-2-carboxamide] in this work.
A melting point of 170 to 171 °C was found for CNC(=O)c1cc2c(Oc3ccc(F)c(F)c3F)cncc2s1 [Example 181, N-Methyl-4-(2,3,4-trifluorophenoxy)thieno[2,3-c]pyridine-2-carboxamide] in this work.
A melting point of 218 to 219 °C was found for NC(=O)c1cc2c(Oc3ccc(F)c(F)c3F)cncc2s1 [Example 182, 4-(2,3,4-Trifluorophenoxy)thieno[2,3-c]pyridine-2-carboxamide] in this work.
A melting point of 80 to 81 °C was found for C=Cc1ccc(Oc2cncc3sc(C(=O)N(C)C)cc23)cc1 [Example 185, N,N-Dimethyl-4-(4-vinylphenoxy)thieno[2,3-c]pyridine-2-carboxamide] in this work.
A melting point of 195 to 196 °C was found for CNC(=O)c1cc2c(Oc3ccc(COC4CCCCO4)cc3)cncc2s1 (stereo not drawn) [Example 199, N-Methyl-4-{4-[(tetrahydro-2H-pyran-2-yloxy)methyl]phenoxy}thieno[2,3-c]pyridine-2-carboxamide] in this work.
A melting point of 180 to 182 °C was found for NC(=O)c1cc2c(Oc3ccc(COC(=O)c4ccco4)cc3)cncc2s1 [Example 200, 4-[[2-(Aminocarbonyl)thieno[2,3-c]pyridin-4-yl]oxy}benzyl 2-furoate] in this work.
A melting point of 126 to 128 °C was found for CON=C(C)c1cc2c(Oc3ccc(Cl)cc3)cncc2s1 [Example 243A, 1-[4-(4-Chlorophenoxy)thieno[2,3-c]pyridin-2-yl]-1-ethanone O-methyloxime] in this work.
In the case of CCC(=NO)c1cc2c(Oc3ccc(Cl)cc3)cncc2s1 [Example 246, 1-[4-(4-Chlorophenoxy)thieno[2,3-c]pyridin-2-yl]-1-propanone oxime], the melting point is reported as 195 to 198 °C (dec.).
A melting point of 140 to 142 °C was found for N#Cc1cc2c(Oc3ccc(Cl)cc3)cncc2s1 [Example 248, 4-(4-Chlorophenoxy)thieno[2,3-c]pyridine-2-carbonitrile] in this work.
A melting point of 265 to 268 °C was found for N#CN=C(N)c1cc2c(Oc3ccc(Cl)cc3)cncc2s1 [Example 250, 4-(4-Chlorophenoxy)-N′-cyanothieno[2,3-c]pyridine-2-carboximidamide] in this work.
A melting point of 152 to 154 °C was found for Nc1ccccc1C(=O)c1cc2c(Oc3ccc(Cl)cc3)cncc2s1 [Example 251, (2-Aminophenyl)[4-(4-chlorophenoxy)thieno[2,3-c]pyridin-2-yl]methanone] in this work.
A melting point of 78.6 to 79.8 °C was found for NCc1cc2c(Oc3ccc(Cl)cc3)cncc2s1 [Example 256, [4-(4-Chlorophenoxy)thieno[2,3-c]pyridin-2-yl]methanamine] in this work.
A melting point of 202 to 204 °C was found for NC(=O)NCc1cc2c(Oc3ccc(Cl)cc3)cncc2s1 [Example 258, N-1[4-(4-Chlorophenoxy)thieno[2,3-c]pyridin-2-yl]methyl urea] in this work.
A melting point of 213 to 215 °C was found for Oc1ccc(-c2cc3c(Oc4ccc(Cl)cc4)cncc3s2)cc1 [Example 270, 4-[4-(4-Chlorophenoxy)thieno[2,3-c]pyridin-2-yl]phenol] in this work.
A melting point of 178 to 182 °C was found for Nc1ccc(-c2cc3c(Oc4ccc(Cl)cc4)cncc3s2)cc1 [Example 272, 4-[4-(4-Chlorophenoxy)thieno[2,3-c]pyridin-2-yl]aniline] in this work.
In the case of Nc1nnc(-c2cc3c(Oc4ccc(Cl)cc4)cncc3s2)[nH]1 [Example 277, 5-[4-(4-Chlorophenoxy)thieno[2,3-c]pyridin-2-yl]-4H-1,2,4-triazol-3-amine], the melting point is reported as > 270 °C.
A melting point of 101 to 103 °C was found for Clc1ccc(Oc2cncc3sc(-c4cccs4)cc23)cc1 [Example 292, 4-(4-Chlorophenoxy)-2-(2-thienyl)thieno[2,3-c]pyridine] in this work.
A melting point of 215 to 218 °C was found for NC(=O)c1csc(-c2cc3c(Oc4ccc(Cl)cc4)cncc3s2)n1 [Example 293, 2-[4-(4-Chlorophenoxy)thieno[2,3-c]pyridin-2-yl]-1,3-thiazole-4-carboxamide] in this work.
For Clc1ccc(Oc2cncc3sc(C4=NCCO4)cc23)cc1 [Example 296, 4-(4-Chlorophenoxy)-2-(4,5-dihydro-1,3-oxazol-2-yl)thieno[2,3-c]pyridine], the melting point was 158 to 160 °C (dec.).
A melting point of 154 to 155 °C was found for Clc1ccc(Oc2cncc3sc(C4=NCCN4)cc23)cc1 [Example 298, 4-(4-Chlorophenoxy)-2-(4,5-dihydro-1H-imidazol-2-yl)thieno[2,3-c]pyridine] in this work.
A melting point of 177 to 178 °C was found for Cc1c(C(N)=O)sc2cncc(Oc3ccc(Br)cc3)c12 [Example 304, 4-(4-Bromophenoxy)-3-methylthieno[2,3-c]pyridine-2-carboxamide] in this work.

— patent US6579882B2, “Cell adhesion-inhibiting antiinflammatory compounds” (Abbott Laboratories, priority 1998, dated 2003)
